# Laboratory results reported in paper PMC7765948, “Spadin Modulates Astrocytic Passive Conductance via Inhibition of TWIK-1/TREK-1 Heterodimeric Channels” (International Journal of Molecular Sciences, 2020).
# Like-named read-outs stand apart in the source and are kept apart here.
# How the values were obtained:
# TREK-1 = details: cited from earlier work; for reduction of TREK-1 activity: antidepressants
# Protocol: (§1) Because of the typical linear I–V relationship of astrocytic passive conductance, it has been speculated that astrocytic passive conductance is carried by non-voltage-gated K^+ channels.
# [1] = system: astrocytic passive conductance in mouse hippocampal slices; assay: Whole-cell patch clamp of astrocytic passive conductance in hippocampal slices; format: cell-based, mouse (C57BL/6); details: quinidine 200 μM versus spadin 10 μM
# Protocol: Lentiviruses were injected into hippocampal CA1 region (AP: 0.17, ML: 0.17, DV: 0.19) of 7–8 week-old wild-type C57BL/6 mice. The virus-infected mouse brain slices (350 μm) containing the hippocampus were […]. Individual hippocampal slices were transferred to a recording chamber, which was constantly perfused with artificial cerebrospinal fluid (ACSF) recording solution containing (in mM) 130 NaCl, 24 NaHCO3, 3.5 KCl, 1.25 NaH2PO4, 1.5 CaCl2, 1.5 MgCl2, and 10 glucose saturated with 95% O2–5% CO2 at pH 7.4. Brain slices were co-loaded with SR-101 (Sigma Aldrich, St. Louis, MO, USA; 1 mM) dye to identify the location of astrocytes in the CA1 region. The slices were recovered at room temperature for at least 1 h before SR101 incubation and electrophysiological recording. […] Whole-cell patch recordings were performed on hippocampal astrocytes with a voltage-clamp configuration using an Axopatch 700B (Axon Instruments, Union City, CA, USA). All data are presented as means ± standard error of the mean (s.e.m). The significance of data for comparison was assessed by Student’s t-test (paired t-test) or one-way ANOVA followed by Turkey’s post hoc test, and significance levels are given as: n.s: not significant, * p < 0.05, ** p < 0.01, *** p < 0.001, and **** p < 0.0001. […]
# TWIK-1 (K274E) = details: 100 μM quinine; cited from earlier work
# Protocol: as §1
# [2] = system: astrocytic passive conductance; details: 200 μM quinine; cited from earlier work
# Protocol: as §1
# [3] = conventional K^+ channel blockers
structure (smiles),measurement,setting,value
Nc1ccncn1 [4-aminopyrimidine],TREK-1 channel activity,TREK-1; [3],not
"CCCCC/C=C\C/C=C\C/C=C\C/C=C\CCCC(=O)O [AA, arachidonic acid]",TREK-1 channel activation,TREK-1,activated
CNCCC(Oc1ccc(C(F)(F)F)cc1)c1ccccc1 (centres unmarked) [Fluoxetine],reduction of TREK-1 activity,TREK-1,effective in the reduction of TREK-1 activity
Fc1ccc([C@@H]2CCNC[C@H]2COc2ccc3c(c2)OCO3)cc1 [paroxetine],reduction of TREK-1 activity,TREK-1,effective in the reduction of TREK-1 activity
C=C[C@H]1C[N@@]2CC[C@H]1C[C@@H]2[C@@H](O)c1ccnc2ccc(OC)cc12 [quinidine],TREK-1 channel activity,TREK-1; high-dose quinine or quinidine,affected
same,concentration required for similar inhibition of passive conductance,[1],required at a much higher concentration than spadin
C=C[C@H]1C[N@@]2CC[C@H]1C[C@H]2[C@H](O)c1ccnc2ccc(OC)cc12 [quinine],cloned TWIK-1 (K274E) current,TWIK-1 (K274E),potently decreases
same,inhibition of astrocytic passive conductance,[2],58%
same,cloned TREK-1 current,TREK-1; 100 μM quinine,potently decreases
same,TREK-1 channel activity,TREK-1; high-dose quinine or quinidine,affected
CC[N+](CC)(CC)CC [tetraethylammonium],TREK-1 channel activity,TREK-1; [3],not
